These results are taken from ChEMBL document CHEMBL4402510, “Caprazamycins: Promising lead structures acting on a novel antibacterial target MraY” (Eur J Med Chem, 2019).

Molecules are shown by their SMILES. ≈ marks a conversion by molar mass, not a printed value.

The subject of experiment [1] is Haemophilus influenzae. Description: Antibacterial activity against Haemophilus influenzae after 20 hrs by NCCLS-based two-fold broth dilution method. Type of experiment: functional.
For experiment [2], the system named is Enterococcus faecalis. Description: Antibacterial activity against t Enterococcus faecalis VRE after 20 hrs by NCCLS-based two-fold broth dilution method. The format is functional. The settings on record: read-out: MIC.
Experiment [3] has as its system Enterococcus faecalis. Nature of the experiment: Antibacterial activity against t Enterococcus faecalis after 20 hrs by NCCLS-based two-fold broth dilution method. Type of experiment: functional. The note with it: read-out: MIC.
Experiment [4] relates to Staphylococcus aureus. Description: Antibacterial activity against methicillin resistant Staphylococcus aureus after 20 hrs by NCCLS-based two-fold broth dilution method. Type of experiment: functional. The settings on record: read-out: MIC.
Experiment [5] concerns Enterococcus faecium. Description: Antibacterial activity against Enterococcus faecium SR7917 (VRE). The format is functional.
In experiment [6] the test system is Enterococcus faecium. Nature of the experiment: Antibacterial activity against Enterococcus faecium ATCC 19434. The format is functional.
Experiment [7] has as its system Enterococcus faecalis. Nature of the experiment: Antibacterial activity against Enterococcus faecalis SR7914 (VRE). The format is functional.
For experiment [8], the system named is Staphylococcus aureus. Description: Antibacterial activity against methicillin resistant Staphylococcus aureus SR3637. The format is functional.
For experiment [9], the system named is Pseudomonas aeruginosa. Description: Antibacterial activity against Pseudomonas aeruginosa after 20 hrs by NCCLS-based two-fold broth dilution method. Type of experiment: functional.
Experiment [10] has as its system Enterococcus faecalis. Description: Antibacterial activity against Enterococcus faecalis ATCC 29212. The format is functional.
In experiment [11] the test system is Staphylococcus aureus. Nature of the experiment: Antibacterial activity against methicillin susceptible Staphylococcus aureus ATCC 29213. The format is functional.
The subject of experiment [12] is Pseudomonas aeruginosa. Nature of the experiment: Antibacterial activity against Pseudomonas aeruginosa YY165. Type of experiment: functional.
The subject of experiment [13] is Enterococcus faecium. Description: Antibacterial activity against t Enterococcus faecium VRE after 20 hrs by NCCLS-based two-fold broth dilution method. Type of experiment: functional. The settings on record: read-out: MIC.
For experiment [14], the system named is Staphylococcus aureus. Nature of the experiment: Antibacterial activity against methicillin susceptible Staphylococcus aureus after 20 hrs by NCCLS-based two-fold broth dilution method. The format is functional. The note with it: read-out: MIC.
The test system of experiment [15] is Haemophilus influenzae. Description: Antibacterial activity against Haemophilus influenzae ATCC 10211. The format is functional.
Experiment [16] concerns Enterococcus faecium. Nature of the experiment: Antibacterial activity against t Enterococcus faecium after 20 hrs by NCCLS-based two-fold broth dilution method. The format is functional.
Experiment [17] relates to Mycobacterium avium. Description: Antibacterial activity against Mycobacterium avium. The format is functional.
In experiment [18] the test system is Mycobacterium tuberculosis. Description: Antibacterial activity against Mycobacterium tuberculosis. Type of experiment: functional.
In experiment [19] the test system is Mycolicibacterium smegmatis. Nature of the experiment: Antibacterial activity against Mycobacterium smegmatis. The format is functional.
The test system of experiment [20] is Mycobacterium intracellulare. Description: Antibacterial activity against Mycobacterium intracellulare. Type of experiment: functional.
Experiment [21] concerns Escherichia coli. Nature of the experiment: Antibacterial activity against Escherichia coli after 20 hrs by NCCLS-based two-fold broth dilution method. Type of experiment: functional.
The target of experiment [22] is T1, Phospho-N-acetylmuramoyl-pentapeptide-transferase (Staphylococcus aureus, UniProt P0C1R8).
T1 sequence (P0C1R8 whole entry): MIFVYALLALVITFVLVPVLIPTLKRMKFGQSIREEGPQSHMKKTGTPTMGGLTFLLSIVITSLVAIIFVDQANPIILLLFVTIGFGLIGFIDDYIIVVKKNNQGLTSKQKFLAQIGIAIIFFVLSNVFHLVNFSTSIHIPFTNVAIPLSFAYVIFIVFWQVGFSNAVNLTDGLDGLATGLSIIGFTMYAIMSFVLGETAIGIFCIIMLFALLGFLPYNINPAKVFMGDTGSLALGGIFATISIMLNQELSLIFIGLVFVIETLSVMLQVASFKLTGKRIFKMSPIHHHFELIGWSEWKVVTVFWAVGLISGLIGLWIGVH
Nature of the experiment: Inhibition of MraY in Staphylococcus aureus.

The test system of experiment [23] is Escherichia coli. Nature of the experiment: Antibacterial activity against Escherichia coli ATCC 25922. The format is functional.
For experiment [24], the system named is Streptococcus pneumoniae. Nature of the experiment: Antibacterial activity against Streptococcus pneumoniae. The format is functional.
Experiment [25] relates to Acinetobacter baumannii. Nature of the experiment: Antibacterial activity against Acinetobacter baumannii ATCC 19606. The format is functional. The settings on record: ATCC 19606 = CIP 70.34 = JCM 6841.
Experiment [26] relates to Pseudomonas aeruginosa. Description: Antibacterial activity against Pseudomonas aeruginosa PAO1 deltamexB. The format is functional.

Regarding `CCCCCCCCCCCCCCCC(=O)OC[C@@H]1[C@H](C(N)=O)[C@H]([C@H]2O[C@@H](n3ccc(=O)[nH]c3=O)[C@H](O)[C@@H]2O)ON1CCCN`, the MIC in [1] is 0.25 to 0.5 µg/mL (≈ 0.382 to 0.765 µM); in [2], 4 to 8 µg/mL (≈ 6.12 to 12.2 µM); in experiment [3], 16 µg/mL (≈ 24.5 µM).

Take `CCCCCCCCCCCCCC(=O)N[C@@H]1CCN[C@@H]([C@H](O[C@@H]2O[C@H](CN)[C@@H](O)[C@H]2O)[C@H]2O[C@@H](n3ccc(=O)[nH]c3=O)[C@H](O)[C@@H]2O)C1`: the MIC in experiment [1] came to 32 µg/mL (≈ 46.8 µM); in [4] it was 32 µg/mL (≈ 46.8 µM); in experiment [2] it was 2 µg/mL (≈ 2.92 µM); in [5], 8 µg/mL (≈ 11.7 µM); in experiment [6] it was 16 µg/mL (≈ 23.4 µM); in experiment [7], 2 µg/mL (≈ 2.92 µM). The MIC in experiment [8] worked out at 32 µg/mL (≈ 46.8 µM); in [9] it was 32 µg/mL (≈ 46.8 µM); in [10], 2 µg/mL (≈ 2.92 µM); in experiment [3], 2 µg/mL (≈ 2.92 µM); in [11], 16 µg/mL (≈ 23.4 µM); in experiment [12], 32 µg/mL (≈ 46.8 µM). The MIC turned out to be 8 µg/mL (≈ 11.7 µM) in [13], 16 µg/mL (≈ 23.4 µM) in experiment [14], 32 µg/mL (≈ 46.8 µM) in [15] and 16 µg/mL (≈ 23.4 µM) in [16].

Turning to `CO[C@@H]1[C@@H](OC)[C@H](C)O[C@@H](OC(=O)C[C@@H](C)CC(=O)O[C@@H](CCCCCCCCC(C)C)CC(=O)O[C@H]2CN(C)[C@@H]([C@H](O[C@@H]3O[C@H](CN)[C@@H](O)[C@H]3O)[C@H]3O[C@@H](n4ccc(=O)[nH]c4=O)[C@H](O)[C@@H]3O)C(=O)N(C)[C@@H]2C(=O)O)[C@@H]1OC`, the MIC in [17] was 0.1 µg/mL (≈ 0.0894 µM); in experiment [18], 1.56 µg/mL (≈ 1.4 µM); in experiment [19], 0.78 to 1.56 µg/mL (≈ 0.698 to 1.4 µM); in experiment [20], 1.56 µg/mL (≈ 1.4 µM).

Turning to `CCCCCCCCCCCCCCCCC[C@@H]1CN[C@@H]([C@H](O[C@@H]2O[C@H](CN)[C@@H](O)[C@H]2O)[C@H]2O[C@@H](n3ccc(=O)[nH]c3=O)[C@H](O)[C@@H]2O)C(=O)N(C)[C@@H]1C(=O)O`, the MIC is 4 µg/mL (≈ 5.1 µM) in experiment [4]; 8 µg/mL (≈ 10.2 µM) in [2]; 16 µg/mL (≈ 20.4 µM) in experiment [5]; 8 µg/mL (≈ 10.2 µM) in [6]; 16 µg/mL (≈ 20.4 µM) in experiment [7]; 8 µg/mL (≈ 10.2 µM) in experiment [8]. Moreover, the MIC in experiment [10] was 8 µg/mL (≈ 10.2 µM); in experiment [3], 4 µg/mL (≈ 5.1 µM); in experiment [11] it was 8 µg/mL (≈ 10.2 µM); in experiment [13], 8 µg/mL (≈ 10.2 µM); in experiment [14], 4 µg/mL (≈ 5.1 µM); in experiment [16] it was 8 µg/mL (≈ 10.2 µM).

As for `CCCCCCCCCCCCCCCC(=O)N[C@@H]1CCN[C@@H]([C@@H](O[C@@H]2O[C@H](CN)[C@@H](O)[C@H]2O)[C@H]2O[C@@H](n3ccc(=O)[nH]c3=O)[C@H](O)[C@@H]2O)C1`, the MIC in experiment [4] was determined as 32 µg/mL (≈ 45 µM); in experiment [21], 32 µg/mL (≈ 45 µM); in experiment [2], 32 µg/mL (≈ 45 µM); in experiment [5], 16 µg/mL (≈ 22.5 µM); in experiment [23] it was 32 µg/mL (≈ 45 µM); in experiment [6] it was 32 µg/mL (≈ 45 µM). The MIC in experiment [7] was 32 µg/mL (≈ 45 µM); in experiment [8], 32 µg/mL (≈ 45 µM); in [10] it was 32 µg/mL (≈ 45 µM); in experiment [24], 64 µg/mL (≈ 89.9 µM); in experiment [3], 32 µg/mL (≈ 45 µM); in [25], > 64 µg/mL. The MIC was > 64 µg/mL in experiment [26]; 16 µg/mL (≈ 22.5 µM) in experiment [11]; > 64 µg/mL in experiment [12]; 16 µg/mL (≈ 22.5 µM) in experiment [13]; 16 µg/mL (≈ 22.5 µM) in experiment [14]; > 64 µg/mL in [15]. In experiment [16], this molecule had an MIC of 32 µg/mL (≈ 45 µM). Also, in experiment [22], the IC50 is > 2700 µM.

Take `CCCCCCCCCCCC[C@@H](CC(=O)O[C@H]1CN(C)[C@@H]([C@H](O[C@@H]2O[C@H](CN)[C@@H](O)[C@H]2O)[C@H]2O[C@@H](n3ccc(=O)[nH]c3=O)[C@H](O)[C@@H]2O)C(=O)N(C)[C@@H]1C(=O)O)OC(=O)C[C@H](C)CC(=O)O[C@@H]1O[C@@H](C)[C@H](OC)[C@@H](OC)[C@H]1OC`: the MIC in experiment [17] is < 0.025 µg/mL; in experiment [18], 0.78 µg/mL (≈ 0.689 µM); in experiment [19], 0.78 to 1.56 µg/mL (≈ 0.689 to 1.38 µM); in experiment [20], 0.78 µg/mL (≈ 0.689 µM).

`CCCCCCCCCCC[C@@H](CC(=O)O[C@H]1CN(C)[C@@H]([C@H](O[C@@H]2O[C@H](CN)[C@@H](O)[C@H]2O)[C@H]2O[C@@H](n3ccc(=O)[nH]c3=O)[C@H](O)[C@@H]2O)C(=O)N(C)[C@@H]1C(=O)O)OC(=O)C[C@H](C)CC(=O)O[C@@H]1O[C@@H](C)[C@H](OC)[C@@H](OC)[C@H]1OC`: the MIC was < 0.025 µg/mL in experiment [17], 0.78 µg/mL (≈ 0.698 µM) in experiment [18], 0.39 to 1.56 µg/mL (≈ 0.349 to 1.4 µM) in [19] and 0.78 µg/mL (≈ 0.698 µM) in experiment [20].
